In one experiment the target is T1, ETA (Oryctolagus cuniculus, UniProt A5A8K3).
T1 sequence (A5A8K3 21-427): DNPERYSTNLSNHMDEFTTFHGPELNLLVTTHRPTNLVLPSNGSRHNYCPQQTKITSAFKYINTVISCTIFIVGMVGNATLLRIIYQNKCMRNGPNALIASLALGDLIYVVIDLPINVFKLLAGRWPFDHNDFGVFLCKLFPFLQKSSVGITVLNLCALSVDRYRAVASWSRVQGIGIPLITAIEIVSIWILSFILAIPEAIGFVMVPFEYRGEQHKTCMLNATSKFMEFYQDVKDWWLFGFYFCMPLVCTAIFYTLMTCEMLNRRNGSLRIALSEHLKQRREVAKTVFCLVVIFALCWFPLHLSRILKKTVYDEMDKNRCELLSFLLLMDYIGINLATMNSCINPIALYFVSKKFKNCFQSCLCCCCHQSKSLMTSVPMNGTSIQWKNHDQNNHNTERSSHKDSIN
To be noted: ERBA-A IC50, [125I]-ET-1, rabbit renal artery vascular smooth muscle cells.

A further experiment has as its target T2, human ETB receptor (Homo sapiens, UniProt P24530).
T2 construct: expressed in transfected cells; host or cells: CHO-K1 cells, pRc-CMW (so in the source) expression vector, electroporation; membranes used
T2 sequence (P24530 27-442): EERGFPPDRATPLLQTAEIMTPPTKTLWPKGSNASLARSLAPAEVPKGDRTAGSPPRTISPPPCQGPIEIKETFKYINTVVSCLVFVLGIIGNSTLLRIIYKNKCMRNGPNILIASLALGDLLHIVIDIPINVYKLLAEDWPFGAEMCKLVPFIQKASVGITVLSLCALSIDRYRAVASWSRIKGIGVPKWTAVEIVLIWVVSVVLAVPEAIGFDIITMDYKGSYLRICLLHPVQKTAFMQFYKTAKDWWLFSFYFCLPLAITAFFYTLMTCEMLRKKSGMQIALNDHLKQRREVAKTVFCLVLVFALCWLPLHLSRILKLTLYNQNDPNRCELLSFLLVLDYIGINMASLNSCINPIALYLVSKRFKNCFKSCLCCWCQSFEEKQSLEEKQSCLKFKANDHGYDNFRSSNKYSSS
Kind of experiment: ERBA-B: [125I]-ET-1 binding, recombinant human ETB receptor expressed in CHO-K1 cells. The note with it: human cloned ETB receptor, read-out: ERBA-B IC50, human cloned receptor data. The protocol:
Count filters for radioactivity in gamma counter.
The above process has also been modified by using human recombinant CHO-K1 cells.
The tissue used for human ETB was recombinant human ETB receptor expressed in CHO-K1 cells (chinese hamster ovary cells). The gene for human ETB receptor was cloned and inserted into the pRc-CMW expression vector, then transfected into CHO-K1 cells by electroporation. For binding assays, membranes (0.7 mg protein) of CHO-K1 cells expressing recombinant human ETB receptor were used.
^d Human cloned receptor data

Where a name gives a salt, the structure may show the parent alone.

As for `COc1ccc(C(=O)/C(Cc2ccccc2)=C(\C(=O)O)c2ccc3c(c2)OCO3)cc1C` [Example 355, Sodium 2-Benzo[1,3]dioxol-5-yl-3-benzyl-4-(4-methoxy-3-methyl-phenyl)-4-oxo-but-2-enoate], the half-maximal inhibitory concentration (IC50) (commonly the midpoint of a concentration-inhibition curve) at ETA worked out at 42 nM; at human ETB receptor, 1600 nM.
With `COC(=O)Cc1cccc(CC2=C(c3ccc4c(c3)OCO4)C(=O)OC2(O)c2ccc(OC)cc2)c1` (centres unmarked) [Example 294, {3-[4-Benzo[1,3]dioxol-5-yl-2-hydroxy-2-(4-methoxyphenyl)-5-oxo-2,5-dihydro-furan-3-ylmethyl]-phenyl}-acetic acid methyl ester], the IC50 at ETA stood at 3.4 nM; at human ETB receptor it was 780 nM.
Turning to `CCCCCCCCOc1ccc(CC2=C(c3cc(OC)cc(OC)c3)C(=O)OC2(O)c2ccc(OC)cc2)cc1OC` (centres unmarked) [Example 381, 3-(3,5-Dimethoxy-phenyl)-5-hydroxy-4-(3-methoxy-4-octyloxy-benzyl)-5-(4-methoxy-phenyl)-5H-furan-2-one], the results for the IC50 against ETA and on human ETB receptor were 68 nM and 570 nM, respectively.
For `COc1ccc(C2(O)OC(=O)C(c3ccc4c(c3)OCO4)=C2CC2CCCC2)cc1` (centres unmarked) [Example 314, 3-Benzo[1,3]dioxol-5-yl-4-cyclopentylmethyl-5-hydroxy-5-(4-methoxy-phenyl)-5H-furan-2-one], the results for the IC50 against ETA and at human ETB receptor were 8.4 nM and 640 nM, respectively.
As to `COc1cc(OC)cc(C2=C(Cc3ccc(NC(C)=O)cc3)C(O)(c3ccc(OC)c(C)c3)OC2=O)c1` (centres unmarked) [Example 385, N-{4-[4-(3,5-Dimethoxy-phenyl)-2-hydroxy-2-(4-methoxy-3-methyl-phenyl)-5-oxo-2,5-dihydro-furan-3-ylmethyl]-phenyl}-acetamide], the results for the IC50 on ETA and at human ETB receptor were 0.8 nM and 690 nM, respectively.
The corresponding values for `COc1ccc(C2(O)OC(=O)C(c3ccc4c(c3)OCO4)=C2Cc2ccccc2Oc2ccccc2)cc1` (centres unmarked) [Example 313, 3-Benzo[1,3]dioxol-5-yl-5-hydroxy-5-(4-methoxy-phenyl)-4-(2-phenoxy-benzyl) -5H-furan-2-one] are 99 nM and over 2500 nM.
For the compound `COC(=O)C1CCCC(CC2=C(c3ccc4c(c3)OCO4)C(=O)OC2(O)c2ccc(OC)cc2)C1` (centres unmarked) [Example 399, 3-[4-Benzo[1,3]dioxol-5-yl-2-hydroxy-2-(4-methoxyphenyl)-5-oxo-2,5-dihydro-furan-3-ylmethyl]-cyclohexanecarboxylic acid methyl ester], the IC50 at ETA was 20 nM; on human ETB receptor, 1100 nM.
With `COc1ccc(C2(O)OC(=O)C(c3ccc4c(c3)OCO4)=C2Cc2cc(OC)ccc2OC)cc1` (centres unmarked) [Example 307, 3-Benzo[1,3]dioxol-5-yl-4-(2,5-dimethoxy-benzyl)-5-hydroxy-5-(4-methoxy-phenyl)-5H-furan-2-one], the values for the IC50 at ETA and on human ETB receptor were 5.9 nM and 1000 nM, respectively.
Regarding `COc1ccc(C(=O)/C(Cc2ccc(C(=O)NCCN3CCOCC3)cc2)=C(\C(=O)O)c2ccc3c(c2)OCO3)cc1` [Example 349, 2-benzo[1,3]dioxol-5-yl-4-(4-methoxy-phenyl)-3-[4-(2-morpholin-4-yl-ethylcarbamoyl)-benzyl]-4-oxo-but-2-enoic acid], the IC50 was determined as 510 nM at ETA and 25000 nM on human ETB receptor.
For `COc1ccc(C2(O)OC(=O)C(c3ccc4c(c3)OCO4)=C2Cc2cccnc2)cc1` (racemic) [Example 165, 2(5H)-Furanone, 3-(1,3-benzodioxol-5-yl)-5-hydroxy-5-(4-methoxyphenyl)-4-(3-pyridinylmethyl)-, (±)-, monohydrochloride], the 50% inhibitory concentration (IC50) is 40 nM on ETA and 25000 nM at human ETB receptor.
With `COc1ccc(C(=O)/C(Cc2ccccc2)=C(\C(=O)O)c2cc(OC)c3c(c2)OCO3)cc1` [Example 368, Sodium 3-Benzyl-2-(7-methoxy-benzo[1,3]dioxol-5-yl)-4-(4-methoxy-phenyl)-4-oxo-but-2-enoate], the IC50 on ETA is under 25 nM; on human ETB receptor it was 960 nM.
Regarding `COc1ccc(C2(O)OC(=O)C(c3ccc4c(c3)OCO4)=C2CC(c2ccccc2)C2CCCC2)cc1` (centres unmarked) [Example 319, 3-Benzo[1,3]dioxol-5-yl-4-(2-cyclopentyl-2-phenylethyl)-5-hydroxy-5-(4methoxy-phenyl)-5H-furan-2-one], the figures for the IC50 on ETA and on human ETB receptor were 5.6 nM and 180 nM, respectively.
As to `COc1cc(OC)cc(/C(C(=O)O)=C(\Cc2c(OC)cc(OC)cc2OC)C(=O)c2ccc(OC)c(C)c2)c1` [Example 392], the figures for the 50% inhibitory concentration (IC50) against ETA and at human ETB receptor were 3800 nM and 14000 nM, respectively.
Turning to `COc1ccc(C2(O)OC(=O)C(c3ccc4c(c3)OCO4)=C2Cc2ccc(OC)cc2OCC(=O)O)cc1` (centres unmarked) [Example 344, {2-[4-Benzo[1,3]dioxol-5-yl-2-hydroxy-2-(4-methoxy-phenyl)-5-oxo-2,5-dihydro-furan-3-ylmethyl]-5-methoxy-phenoxy}-acetic acid], the concentration for half-maximal inhibition (IC50) on ETA is 380 nM; on human ETB receptor, over 25000 nM.
Regarding `COc1ccc(C2(O)OC(=O)C(c3cc(OC)cc(OC)c3)=C2Cc2ccc(OC)c(C)c2)cc1` (centres unmarked) [Example 272], the results for the IC50 against ETA and on human ETB receptor were 6.4 nM and 760 nM, respectively.
Take `CCOC(=O)COc1c(OC)cc(CC2=C(c3ccc4c(c3)OCO4)C(=O)OC2(O)c2ccc(OC)cc2)cc1OC` (centres unmarked) [Example 362, {4-[4-Benzo[1,3]dioxol-5-yl-2-hydroxy-2-(4-methoxyphenyl)-5-oxo-2,5-dihydro-furan-3-ylmethyl]-2,6-dimethoxy-phenoxy}-acetic acid ethyl ester]: the IC50 was 26 nM against ETA and 1200 nM at human ETB receptor.
Turning to `COc1ccc(C2(O)OC(=O)C(c3cc(OC)cc(OC)c3)=C2Cc2cccc(F)c2)cc1` (centres unmarked) [Example 129, 3-(3,5-Dimethoxphenyl)-4-(3-fluorobenzyl)-5-hydroxy-5-(4-methoxyphenyl)-5H-furan-2-one], the values for the IC50 against ETA and on human ETB receptor were 72 nM and 2300 nM, respectively.
Consider `COc1ccc(C2(O)OC(=O)C(c3ccc4c(c3)OCO4)=C2Cc2cc(C)c(OC)c(C)c2)cc1` (centres unmarked) [Example 296, 3-Benzo[1,3]dioxol-5-yl-5-hydroxy-4-(4-methoxy-3,5-dimethyl-benzyl)-5-(4-methoxy-phenyl)-5-H-furan-2-one], for which the IC50 at ETA stood at 6 nM; at human ETB receptor it was 580 nM.
On to `CCC(CC)CC1=C(c2ccc3c(c2)OCO3)C(=O)OC1(O)c1ccc(OC)cc1` (centres unmarked) [Example 315, 3-Benzo[1,3]dioxol-5-yl-4-(2-ethyl-butyl)-5-hydroxy-5-(4-methoxy-phenyl)-5H -furan-2-one], for which the values for the IC50 at ETA and at human ETB receptor were 40 nM and 11800 nM, respectively.
On to `COc1ccc(C2(O)OC(=O)C(c3ccc4c(c3)OCO4)=C2CC2CCCc3ccccc32)cc1` (centres unmarked) [Example 398, 3-Benzo[1,3]dioxol-5-yl-5-hydroxy-5-(4-methoxy-phenyl)-4-(1,2,3,4-tetrahydro-naphthalen-1-ylmethyl)-5H-furan-2-one], for which the 50% inhibitory concentration (IC50) at ETA is 830 nM; on human ETB receptor, over 2500 nM.
As for `COc1ccc(C2(O)OC(=O)C(c3ccc4c(c3)OCO4)=C2CC2CC2)cc1` (centres unmarked) [Example 400, 3-Benzo[1,3]dioxol-5-yl-4-cyclopropylmethyl-5-hydroxy-5-(4-methoxy-phenyl)-5H-furan-2-one], the results for the IC50 against ETA and at human ETB receptor were 39 nM and over 2500 nM, respectively.
`O=C(O)/C(=C(/Cc1ccccc1)C(=O)c1ccc(-n2ccnc2)cc1)c1ccc2c(c1)OCO2` [Example 348, 2-Butenoic acid, 2-(1,3-benzodioxol-5-yl)-4-[4-(1H-imidazol-1-yl)phenyl]4-oxo-3-(phenylmethyl)-]: the IC50 against ETA was 7100 nM; at human ETB receptor, over 25000 nM.
In the same order, the values of `COc1ccc(C2(O)OC(=O)C(c3ccc4c(c3)OCO4)=C2Cc2cc(C)c(OC)cc2C)cc1` (centres unmarked) [Example 251, 3-Benzo[1,3]dioxol-5-yl-5-hydroxy-4-(4-methoxy-2,5-dimethylbenzyl)-5-(4-methoxyphenyl)-5H-furan-2-one] are 6 nM and over 2500 nM.
On to `COc1ccc(C2(O)OC(=O)C(c3ccc(OC)c(OC)c3)=C2Cc2ccccc2)cc1` (centres unmarked) [Example 261, 4-Benzyl-3-(3,4-dimethoxyphenyl)-5-hydroxy-5-(4-methoxyphenyl)-5H-furan-2-one], for which the IC50 against ETA turned out to be 160 nM; at human ETB receptor, 3900 nM.
Consider `COc1ccc(C2(O)OC(=O)C(c3ccc4c(c3)OCO4)=C2Cc2ccccc2Oc2ccc3c(c2)OCO3)cc1` (centres unmarked) [Example 324, 3-Benzo[1,3]dioxol-5-yl-4-[2-(benzo[1,3]dioxol-5-yloxy)-benzyl]-5-hydroxy-5-(4-methoxy-phenyl)-5H-furan-2-one], for which the 50% inhibitory concentration (IC50) against ETA is 8.4 nM; on human ETB receptor, 5300 nM.

Source of the values: patent publication US5691373A, “Nonpeptide endothelin antagonists I” (Warner-Lambert Company, priority 1995, dated 1997).
